Results taken from US8771741B2, “In vivo photodynamic therapy of cancer via a near infrared agent encapsulated in calcium phosphate nanoparticles” (The Penn State Research Foundation, priority 2009, dated 2014).
Entries after “also recorded” stand apart in the source; their conditions may differ. Structures can show the parent of a compound that is named as a salt. Blank lines part the entries; values can stand above or below the compound they belong to.

Legend:
[1] = Fluorescence emission of ICG-CPNPs versus free ICG; type: physicochemical; settings: aqueous solution, pH 7; data not shown
From the text: The fluorescence spectrum of the dye-doped CPNPs was compared to that of the corresponding free ICG dye under identical optical conditions (785 nm excitation). […] These undesirable phenomena result in peak transformations or spectral shifts, respectively, which are not observed for the embedded ICG emission.
For all optical measurements, samples were placed in a low-volume fluorescence cuvette (9F-SOG-10-GL14-S; Starna Cells, Inc., Atascadero, Calif.), and held by a modified cuvette holder. Absorption spectra were recorded on a PerkinElmer Lambda 950 UV-Vis-NIR spectrophotometer (Perkin Elmer, Waltham, Mass.). The dye-doped particle absorption at 785 nm was compared to a standard curve of absorption vs. ICG concentration to identify the apparent encapsulate content, not accounting for any matrix effects. Next, the release of the encapsulated fluorophore was induced with the addition of a 10:1 volume ratio of a 10^−3 M solution of ethylenediaminetetraacetic acid (EDTA) to the particle suspension. EDTA is a chelating agent that sequesters the divalent Ca^2+ ion from the nanostructure, dissolving the calcium phosphate particles. […]
Fluorescence spectra were recorded using an in-house spectroscopy system in which emitted radiation was collected at 90 degrees with a 10× microscope objective (N.A. 0.3) coupled into a fiber optic cable leading to the spectrometer (Ocean Optics HR-2000-USB). […]

[2] = Quantum efficiency of ICG; type: physicochemical; settings: PBS pH 7.4, reference HITC
Description: Each measurement was conducted in duplicate on two separate occasions using freshly prepared stock solutions and a new set of standard data.

[3] = Solvent protection (emission spectra in four bio-relevant solvents); type: physicochemical; settings: water, DMEM, ethylene glycol, DMSO
From the text: The chemical stability of the encapsulated fluorophore was experimentally verified by analyzing fluorescence spectra as a function of solvent environment. The effect of four bio-relevant solvents (water, Dulbecco's modified Eagle's medium (DMEM), ethylene glycol, and dimethylsulfoxide (DMSO)) on the free ICG dye is shown in FIG. 17A, with shifts in the normalized emission spectra dependent on the solvent environment. The maximum emission wavelengths have a standard deviation of 7.8 nm over an 18 nm spread. These peak values shift toward longer wavelengths due to a combination of general solvent influences and specific solvent effects, such as molecule-molecule interactions and hydrogen bonding. (Lakowicz, J. R., Principles of Fluorescence Spectroscopy. 3rd ed.; Springer: Baltimore, Md., 2006).
Fluorescence spectra were recorded using an in-house spectroscopy system in which emitted radiation was collected at 90 degrees with a 10× microscope objective (N.A. 0.3) coupled into a fiber optic cable leading to the spectrometer (Ocean Optics HR-2000-USB). A high power 785 nm diode laser (450 mW/cm^2) was used as the excitation source (RL785; Renishaw plc, Gloucestershire, UK). […] Aliquots of each were diluted 1:10 into the test solvent and kept in the dark. Measurements were conducted precisely 10 minutes after the sample introduction.

[4] = system: nude mice implanted with subcutaneous human breast adenocarcinoma tumors; experiment: In vivo NIR imaging: pharmacokinetic distribution and tumor localization; settings: 24 hours post tail vein injection
Description: A NIR whole animal imaging approach was used to investigate the in vivo pharmacokinetic distribution of ICG-CPNPs in nude mice. […] Two different surface functionalities of CPNPs were evaluated, as-synthesized carboxylate surface termination (not shown) and particles surface functionalized with polyethylene glycol (PEG) (series iii). The in vivo behavior of the ICG-CPNP samples were compared to two controls: a sample of carboxylated ghost CPNPs without a fluorescent encapsulate (series i) and free ICG of equivalent absorption (series ii). […] The relatively short in vivo fluorescence of the free dye is attributed to fluorescence quenching of free ICG in physiological environments (Landsman, M. L. J.; Kwant, G.; Mook, G. A.; Zijlstra, W. G. Journal of Applied Physiology 1976, 40, (4), 575-583; Desmettre, T.; Devoisselle, J. M.; Mordon, S. Survey of Opthalmology 2000, 45, (1), 15-27; Simmons, R.; Shephard, R. J. Journal of Applied Physiology 1971, 30, (4), 502-507; Gathje, J.; Steuer, R. R.; Nicholes, K. R. K. Journal of Applied Physiology 1970, 29, (2), 181-185; Mordon, S.; Devoisselle, J. M.; Soulie-Begu, S.; Desmettre, T. Microvascular Research 1998, 55, (2), 146-152; Maarek, J. M. I.; Holschneider, D. P.; Harimoto, J. Journal of Photochemistry and Photobiology B-Biology 2001, 65, (2-3), 157-164) with rapid aggregation and clearance from the body. […]

animal subjects = settings: cited from earlier work
Solubility in water = type: physicochemical
[5] = system: MCF-7 breast adenocarcinoma cells; experiment: Caspase-3/7 apoptosis assay, drug sensitive cells; type: cell-based, human; settings: MCF-7, 24 hrs
Description: (§1) Human MCF-7 breast adenocarcinoma cells and the adriamycin resistant MCF-7-ADR(NCl-AdrR) were grown at 37° C. in RPMI 1640 medium supplemented with 10% fetal bovine serum (FBS). MCF-7 and MCF-7-ADR cells were seeded to a density of 6×10^3 cells/well and grown for 48 hrs in culture medium containing 10% FBS. Cells were then treated with Cer10-CPNP or control CPNP for 24 hrs in media containing 1% fetal bovine serum. Caspase-3/7 enzymatic activity levels were then measured using the Apo-ONE Homogenous Caspase-3/7 Assay (Promega) and performed following the instructions of the manufacturer. The kit provides a caspase-3/7 substrate and Rhodamine 110, which is cleaved by enzymatically active caspase-3/7 resulting in a fluorogenic cleavage product.

[6] = system: MCF-7/ADR (adriamycin resistant) breast adenocarcinoma cells; experiment: Caspase-3/7 apoptosis assay, drug resistant cells; type: cell-based, human; settings: 24 hrs
Description: as §1

[7] = Fluorescence correlation spectroscopy in DPBS (pH dependent dissolution); type: physicochemical; settings: for Diffusion coefficient, average / RH (hydrodynamic radius), average: DPBS pH 4, free dye, average of ten measurements
From the text: Fluorescence correlation spectroscopy was used to determine the solution phase behavior of the particles in order to better understand the particulate behavior in biologically-relevant solutions and to monitor only the fluorescing species. To this end we examined the free dye and the particles in DPBS (Dulbecco's phosphate buffered saline), at pH 7 and at pH 4. Low pH conditions mimicked the acidic environment of an endo-lysosome in which a particle would be enveloped during endocytosis.
FCS measurements were collected for free Cy3 dye at pH 4, Cy3-doped nanoparticles at pH 4 and pH 7 in DPBS. Sample autocorrelation curves are shown in FIG. 9, where a shift of the curve to the right (greater characteristic diffusion time) signifies a lower diffusion coefficient and a larger hydrodynamic radius. In this case, the diffusion time of free Cy3 dye molecules is 127 μs and that of the nanoparticles at pH 7 is 1311 μs. […] The corresponding hydrodynamic radii are RH=9.40±3.83 nm for the nanoparticles at pH 7, RH=0.76±0.09 nm for the nanoparticles at pH 4 and RH=0.75±0.06 nm for the free dye at pH 4. Similar results were obtained for the nanoparticles in DI water at pH 7 and pH 4 (data not shown). In addition to the diffusion data, the particle number concentration can be determined based on the number of particles that diffuse through the observation volume. The CPNP suspension has a particle number concentration of ˜6×10^14 particles/mL, based on these determinations.
The diffusion coefficients and their associated hydrodynamic radii for the ten measurements collected for each sample type (the nanoparticle samples at pH 7 and pH 4, and the Cy3 free dye at pH 4) are listed in Table S1.

[8] = Relative fluorescence quantum efficiency of Cy3; type: physicochemical; settings: PBS, excitation 532 nm, reference Rhodamine 6G
Description: As a comparison of the free dye to the encapsulated dye, the relative fluorescence quantum efficiency (QE) was determined according to techniques in the literature. (Williams, A. T. R.; Winfield, S. A.; Miller, J. N. The Analyst 1983, 108, 1067-1071; Kubin, R. F.; Fletcher, A. N. Journal of Luminescence 1982, 27, 455-462). In brief, the integrated fluorescence signals of the free Cy3 and the Cy3-doped CPNPs in PBS were compared to a known reference standard with an excitation wavelength of 532 nm and the QE was calculated using a modified relationship from Lakowicz (Lakowicz, J. R., Principles of Fluorescence Spectroscopy. Third ed.; Springer Science and Business Media: New York, 2006; p 54),
[formula] where Φ, and ΦR are the QE for the sample and the reference respectively, M and Mr are the slopes of the integrated intensity versus absorption plots (FIG. 12A) and n is the refractive index of each solvent. Rhodamine 6G in ethanol was used as a reference with a quantum efficiency of 0.95. (Kubin, R. F.; Fletcher, A. N. Journal of Luminescence 1982, 27, 455-462). […] FIG. 12B exemplifies this enhancement in QE by comparing the fluorescence signal of the Cy3-doped CPNPs to a solution of Cy3 free dye with the same absorption at 532 nm. […]

[9] = in methanol; cited from earlier work

Compound: CC1(C)C(/C=C/C=C/C=C/C=C2\N(CCCCS(=O)(=O)O)c3ccc4ccccc4c3C2(C)C)=[N+](CCCCS(=O)(=O)[O-])c2ccc3ccccc3c21 [free ICG, indocyanine green]
- concentration at which self-aggregation and loss of emission intensity occur [1]: 7 µM
- quantum efficiency (per molecule) [2]: 0.028±0.001
- spread of maximum emission wavelengths over four solvents [3]: 18 nm
- in vivo fluorescence signal [4]: no detectable signal; also recorded: No fluorescence signal is detected
- LD50 (animal subjects): 50 to 80 mg/kg

- solubility (Solubility in water; water): > 40 mg/mL
Compound: O=C1OC2(c3ccc(O)cc3Oc3cc(O)ccc32)c2ccccc21 [fluorescein sodium salt]

Compound: CCCCCCCCCCCCC/C=C/[C@@H](O)[C@H](CO)NC(=O)CCCCCCCCC [Cer10 in DMSO, Decanoyl-ceramide]
- caspase 3/7 activity (apoptosis) [5]: not
- caspase 3/7 activity (apoptosis) [6]: not

- Diffusion coefficient, average [7]: 2.90 × 10^−6 cm^2/s
- RH (hydrodynamic radius), average [7]: 0.751 nm
- Diffusion coefficient, average ([7]; listed as free Cy3 dye): 29.0±0.18×10^−7 cm^2/s
- RH (hydrodynamic radius), average ([7]; listed as free Cy3 dye): 0.75±0.06 nm
- diffusion time ([7]; sample autocorrelation curve, free dye pH 4): 127 μs
- quantum efficiency ([8]; listed as Cy3 in free solution): 0.045
- quantum efficiency ([8]; listed as free Cy3 dye): 0.045±0.002
- solubility in water (Solubility in water): < 0.05 mg/mL
Compound: Cy3 amidite [Cy3 Dye]

Compound: CN1C(=CC=CC=CC=CC2=[N+](C)c3ccccc3C2(C)C)C(C)(C)c2ccccc21.[I-] [hexamethylindotricarbocyanine (HITC), 1,1′,3,3,3′,3′-hexamethylindotricarbocyanine iodide]
- quantum yield of reference dye [9]: 0.28
